Measurements taken from PubChem BioAssay (NCI).
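Grown in 96-well plates, cells were treated for 48 hours with each compound at five concentrations. Insufficient inhibition: endpoint recorded as highest concentration tested. Definition used: TGI = concentration required for complete inhibition of growth.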

How the values were obtained:
Assay in all cases: growth of human tumour cells (NCI), 48 h
HT29 colon = system: HT29 colon
KM12 colon = system: KM12 colon
HS 578T breast = system: HS 578T breast
PC-3 prostate = system: PC-3 prostate
HCC-2998 colon = system: HCC-2998 colon
RPMI-8226 leukemia = system: RPMI-8226 leukemia
MALME-3M melanoma = system: MALME-3M melanoma
SNB-19 CNS = system: SNB-19 CNS
U251 CNS = system: U251 CNS
NCI-H226 lung = system: NCI-H226 lung
LOX IMVI melanoma = system: LOX IMVI melanoma
BT-549 breast = system: BT-549 breast
SW-620 colon = system: SW-620 colon
OVCAR-8 ovarian = system: OVCAR-8 ovarian
MDA-N = system: MDA-N
HOP-92 NSCLC = system: HOP-92 NSCLC

Row | SMILES | TGI (HT29 colon) [µM] | TGI (KM12 colon) [µM] | TGI (HS 578T breast) [µM] | TGI (PC-3 prostate) [µM] | TGI (HCC-2998 colon) [µM] | TGI (RPMI-8226 leukemia) [µM] | TGI (MALME-3M melanoma) [µM] | TGI (SNB-19 CNS) [µM] | TGI (U251 CNS) [µM] | TGI (NCI-H226 lung) [µM] | TGI (LOX IMVI melanoma) [µM] | TGI (BT-549 breast) [µM] | TGI (SW-620 colon) [µM] | TGI (OVCAR-8 ovarian) [µM] | TGI (MDA-N) [µM] | TGI (HOP-92 NSCLC) [µM]
1 | O=C1C=CC(=O)c2c(O)c(Nc3ccc(OC(F)(F)F)cc3)c(Cl)c(O)c21 | 1.28 | 2.95 | 10.8 | 9.62 | 1.27 | 0.285 | 2.47 | 2.6 | 2.05 | 3.44 | 0.677 | 3.12 | 2.7 | 8.25 | 5.2 | 
2 | CC(=O)NC1C(OCc2ccccc2)OC(CO)C(O)C1OCC(=O)NC(C)C(=O)NC(CCC(=O)OCCNC(=O)c1cccc2cc3ccccc3nc12)C(N)=O (configuration not stated) | > 100 | 56.3 |  | > 100 | 40.4 | 19.3 | 31.4 | 78.8 | 53.5 | 44.7 | 26.8 | 45.8 | > 100 | 39.4 | > 100 | 59
3 | Cn1c2nc(=Nc3ccc(Cl)cc3)n3ccc4ccccc4c3c2c(=O)n1-c1ccccc1 | > 100 | > 100 | > 100 | > 100 | > 100 | > 100 | > 100 | > 100 | > 100 | > 100 | > 100 | > 100 | > 100 | > 100 | > 100 | 
4 | NC(=O)c1nnc2cc(F)c(F)cc2c1N | > 100 | > 100 | 84.4 | > 100 | > 100 | > 100 | > 100 | > 100 | 69.7 | 73.6 | > 100 | 45.6 | > 100 | > 100 | > 100 | 
5 | Oc1ccc2ccccc2c1N=Nc1ccc(N=Nc2ccccc2)cc1 | > 100 | > 100 | > 100 | > 100 |  | > 100 | > 100 | > 100 | > 100 | > 100 | > 100 | > 100 | > 100 | > 100 | > 100 | 
6 | CCCCCCCCCCCCCC/C(=C/OCC[N+](C)(C)C)OC(C)=O (tested in a mixture with another compound) | 1.82 |  | 5.26 | 5.27 | 13.4 | 4.16 | 21.2 | 3.35 | 2.71 | 14.7 |  | 5.85 | 17.5 | 4.15 | 10 | 3.75
7 | C=C(Cl)C(Br)(CCl)CCC(Cl)C(C)C (configuration not stated) (tested in a mixture with another compound) | 2.75 | 3.55 | 7.48 | 10.6 | 10.7 |  | 7.07 | 10.7 | 3.14 | 13.6 | 1.23 | 3.19 | 2.96 |  | 3.45 | 3.46
8 | N#C/C(=C\N1CCNC1=S)C(=O)c1ccc2ccccc2c1 | > 100 | > 100 | > 100 | > 100 | > 100 | > 100 |  | > 100 | > 100 | > 100 | > 100 | > 100 | > 100 | > 100 | > 100 | > 100
